Source: patent publication US12599672B2, “KRAS proteolysis targeting chimeras” (PAQ Therapeutics Inc., priority 2023, dated 2026)

Legend:
Assay type in all cases: cell-based
KRAS = biological target: T1, KRAS (Homo sapiens, UniProt P01116); assay: KRASamp MSD assay; conditions: KE39 (KRAS amplified) cells, treated with test compounds for 24 hr, MSD readout of KRAS degradation
T1 construct: endogenous in cells; host or cells: KE39 (KRAS amplified) cells
Outline: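 Degradation DC50 derived by curve fitting, with KRAS levels quantified by MSD electrochemiluminescence (capture/detection antibodies, recombinant WT KRAS standard). Lysates prepared from KE39 cells (KRAS amplified) exposed to test compounds for 24 hr.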

KRAS G12V = biological target: T2, KRAS G12V (Homo sapiens, UniProt P01116, G12V); assay: KRAS G12V HiBit assay; conditions: SW620-KRAS (G12V)-HiBit-KI cells, compound treatment for 24 hours
T2 construct: SW620-KRAS (G12V)-HiBit-KI cell (Pharmaron); host or cells: SW620-KRAS (G12V)-HiBit-KI cells (HiBiT knock-in at the endogenous KRAS locus)
T2 sequence (P01116 1-188 isoform P01116-2 G12V): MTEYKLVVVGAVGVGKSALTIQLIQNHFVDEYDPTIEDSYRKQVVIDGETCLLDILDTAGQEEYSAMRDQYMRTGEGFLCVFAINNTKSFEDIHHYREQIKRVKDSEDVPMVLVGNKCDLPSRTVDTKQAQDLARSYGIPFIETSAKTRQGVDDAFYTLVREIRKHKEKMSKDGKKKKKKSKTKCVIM
Outline: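 Luminescence from lytic Nano-Glo HiBiT detection with LgBiT read KRAS G12V levels after 24 h compound exposure. Dilutions were 10-point, 3-fold, from a 0.3 mM DMSO stock. Degradation activity was normalised to cells given 0.1% DMSO alone.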

KRAS G12D = biological target: T3, KRAS G12D (Homo sapiens, UniProt P01116, G12D); assay: KRAS G12D HiBit assay; conditions: AsPc-1-KRAS (G12D)-HiBit-KI cell, compound treatment for 24 hours; for DC50: absolute DC50
T3 construct: AsPc-1-KRAS (G12D)-HiBit-KI cell (Pharmaron); host or cells: AsPc-1-KRAS (G12D)-HiBit-KI cells (HiBiT knock-in at the endogenous KRAS locus)
T3 sequence (P01116 1-188 isoform P01116-2 G12D): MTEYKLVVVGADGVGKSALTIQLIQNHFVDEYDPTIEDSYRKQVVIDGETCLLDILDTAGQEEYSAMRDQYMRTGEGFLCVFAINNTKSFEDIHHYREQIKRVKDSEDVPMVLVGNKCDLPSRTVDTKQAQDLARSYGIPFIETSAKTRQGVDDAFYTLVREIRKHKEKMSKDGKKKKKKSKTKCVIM
Outline: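 HiBiT luminescence, detected by adding lytic buffer, substrate and LgBiT protein, served as the KRAS G12D read-out. Compounds, serially diluted 3-fold over 10 points from 0.3 mM DMSO stock, were on cells for 24 h; percent inhibition normalized to cells given 0.1% DMSO only.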

[1] = numeric bounds given in place of class symbols

T1 sequence (P01116 1-188 isoform P01116-2): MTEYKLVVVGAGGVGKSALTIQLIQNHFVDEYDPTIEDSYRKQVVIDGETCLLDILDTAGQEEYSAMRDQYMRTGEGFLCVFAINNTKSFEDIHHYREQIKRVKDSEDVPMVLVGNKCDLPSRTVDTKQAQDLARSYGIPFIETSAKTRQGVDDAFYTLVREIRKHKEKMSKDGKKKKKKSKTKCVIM

Compound	DC50 (KRAS)	DC50 (KRAS G12V; class symbols)	DC50 (KRAS G12D; [1])	DC50 (KRAS G12D; class symbols)	Average Dmax (KRAS G12D; class symbols)	DC50 (KRAS G12V; numeric bounds)
C#Cc1c(F)ccc2cc(O)cc(-c3ncc4c(N5CCC[C@@](C)(O)C5)nc(OC[C@@]56CCCN5[C@H](COC(=O)N5CCC57CCN(C5CCN(c8ccc9c(c8)n(C)c(=O)n9C8CCC(=O)NC8=O)CC5)CC7)CC6)nc4c3F)c12 (stereo partly drawn) [Compound 326, ((3S,7aS)-7a-(((7-(8-ethynyl-7-fluoro-3-hydroxynaphthalen-1-yl)-8-fluoro-4-((R)-3-hydroxy-3-methylpiperidin-1-yl)pyrido[4,3-d]pyrimidin-2-yl)oxy)methyl)hexahydro-1H-pyrrolizin-3-yl)methyl 7-(1-(1-(2,6-dioxopiperidin-3-yl)-3-methyl-2-oxo-2,3-dihydro-1H-benzo[d]imidazol-5-yl)piperidin-4-yl)-1,7-diazaspiro[3.5]nonane-1-carboxylate]	≥ 10 nM	> 100 nM	> 100 nM	–	–	–
CCc1c(F)ccc2cc(O)cc(-c3ncc4c(N5CCC[C@@](C)(O)C5)nc(OC[C@@]56CCCN5[C@H](COC(=O)N5CCC(CN7CCC(c8ccc9c(c8)n(C)c(=O)n9C8CCC(=O)NC8=O)CC7)CC5)CC6)nc4c3F)c12 (stereo partly drawn) [Compound 1, [(3S,8S)-8-[[7-(8-Ethyl-7-fluoro-3-hydroxy-1-naphthyl)-8-fluoro-4-[(3R)-3-hydroxy-3-methyl-1-piperidyl]pyrido[4,3-d]pyrimidin-2-yl]oxymethyl]-1,2,3,5,6,7-hexahydropyrrolizin-3-yl]methyl 4-[[4-[1-(2,6-dioxo-3-piperidyl)-3-methyl-2-oxo-benzimidazol-5-yl]-1-piperidyl]methyl]piperidine-1-carboxylate]	< 1 nM	< 10 nM	–	< 100 nM	A (Dmax greater than 50%)	–
C#Cc1c(F)ccc2cc(O)cc(-c3ncc4c(N5CCC[C@@](C)(O)C5)nc(OC[C@@]56CCCN5[C@H](COC(=O)N5CCCC7(CN(CC8CCN(c9ccc%10c(c9)n(C)c(=O)n%10C9CCC(=O)NC9=O)CC8)C7)C5)CC6)nc4c3F)c12 (stereo partly drawn) [Compound 329, ((3S,7aS)-7a-(((7-(8-ethynyl-7-fluoro-3-hydroxynaphthalen-1-yl)-8-fluoro-4-((R)-3-hydroxy-3-methylpiperidin-1-yl)pyrido[4,3-d]pyrimidin-2-yl)oxy)methyl)hexahydro-1H-pyrrolizin-3-yl)methyl 2-((1-(1-(2,6-dioxopiperidin-3-yl)-3-methyl-2-oxo-2,3-dihydro-1H-benzo[d]imidazol-5-yl)piperidin-4-yl)methyl)-2,6-diazaspiro[3.5]nonane-6-carboxylate]	≥ 10 nM	> 100 nM	> 100 nM	–	–	–
CCc1c(F)ccc2cc(O)cc(-c3ncc4c(N5CCC[C@@](C)(O)C5)nc(OC[C@@]56CCCN5[C@H](COC(=O)N5CCC(CN7CCC(c8ccc9c(c8)n(C)c(=O)n9C8CCC(=O)NC8=O)C(F)(F)C7)CC5)CC6)nc4c3F)c12 (stereo partly drawn) [Compound 398, ((3S,7aS)-7a-(((7-(8-ethyl-7-fluoro-3-hydroxynaphthalen-1-yl)-8-fluoro-4-((R)-3-hydroxy-3-methylpiperidin-1-yl)pyrido[4,3-d]pyrimidin-2-yl)oxy)methyl)hexahydro-1H-pyrrolizin-3-yl)methyl 4-((4-(1-(2,6-dioxopiperidin-3-yl)-3-methyl-2-oxo-2,3-dihydro-1H-benzo[d]imidazol-5-yl)-3,3-difluoropiperidin-1-yl)methyl)piperidine-1-carboxylate]	< 1 nM	< 10 nM	–	< 100 nM	–	–
C#Cc1c(F)ccc2cccc(-c3ncc4c(N5CCC[C@@](C)(O)C5)nc(OC[C@]56CCCN5[C@H](COC(=O)N5CCC(CN7CCC(c8ccc9c(c8)n(C)c(=O)n9C8CCC(=O)NC8=O)CC7)CC5)CC6)nc4c3F)c12 (stereo partly shown) [Compound 141]	< 1 nM	–	> 100 nM	–	–	> 79.2 nM
CCc1c(F)ccc2cc(O)cc(-c3cc4nc(OC[C@@]56CCCN5[C@H](COC(=O)N5CCC7(CC5)CC(N5CCC(c8ccc9c(c8)n(C)c(=O)n9C8CCC(=O)NC8=O)CC5)C7)CC6)nc(N5CCC[C@@](C)(O)C5)c4cn3)c12 (stereo partly drawn) [Compound 461, ((3S,7aS)-7a-(((7-(8-ethyl-7-fluoro-3-hydroxynaphthalen-1-yl)-4-((R)-3-hydroxy-3-methylpiperidin-1-yl)pyrido[4,3-d]pyrimidin-2-yl)oxy)methyl)hexahydro-1H-pyrrolizin-3-yl)methyl 2-(4-(1-(2,6-dioxopiperidin-3-yl)-3-methyl-2-oxo-2,3-dihydro-1H-benzo[d]imidazol-5-yl)piperidin-1-yl)-7-azaspiro[3.5]nonane-7-carboxylate]	< 1 nM	< 10 nM	–	< 100 nM	–	–
C#Cc1c(F)ccc2cc(O)cc(-c3ncc4c(N5CCC[C@@](C)(O)C5)nc(OCC5(CN6CCC7(CC6)CCN(c6cccc8c6n(C)c(=O)n8C6CCC(=O)NC6=O)CC7)CC5)nc4c3F)c12 (stereo partly shown) [Compound 67]	1 to 10 nM	< 10 nM	–	< 100 nM	–	–
CCc1c(F)ccc2cc(O)cc(-c3ncc4c(N5CCC[C@@](C)(O)C5)nc(OC[C@]56CCCN5[C@H](COC(=O)N5CCC(CN7CCC(c8ccc9c(c8)n(C)c(=O)n9C8CCC(=O)NC8=O)CC7)CC5)CC6)nc4c3F)c12 (stereo partly drawn) [Compound 390, ((3S,7aR)-7a-(((7-(8-ethyl-7-fluoro-3-hydroxynaphthalen-1-yl)-8-fluoro-4-((R)-3-hydroxy-3-methylpiperidin-1-yl)pyrido[4,3-d]pyrimidin-2-yl)oxy)methyl)hexahydro-1H-pyrrolizin-3-yl)methyl 4-((4-(1-(2,6-dioxopiperidin-3-yl)-3-methyl-2-oxo-2,3-dihydro-1H-benzo[d]imidazol-5-yl)piperidin-1-yl)methyl)piperidine-1-carboxylate]	1 to 10 nM	< 10 nM	–	< 100 nM	–	–
CCc1c(F)ccc2cc(O)cc(-c3ncc4c(N5CC6CC6C5)nc(OC[C@@]56CCCN5[C@H](COC(=O)N5CCC7(CC5)CC(N5CCC(c8ccc9c(c8)n(C)c(=O)n9C8CCC(=O)NC8=O)CC5)C7)CC6)nc4c3F)c12 (stereo partly drawn) [Compound 346, ((3S,7aS)-7a-(((4-(3-azabicyclo[3.1.0]hexan-3-yl)-7-(8-ethyl-7-fluoro-3-hydroxynaphthalen-1-yl)-8-fluoropyrido[4,3-d]pyrimidin-2-yl)oxy)methyl)hexahydro-1H-pyrrolizin-3-yl)methyl 2-(4-(1-(2,6-dioxopiperidin-3-yl)-3-methyl-2-oxo-2,3-dihydro-1H-benzo[d]imidazol-5-yl)piperidin-1-yl)-7-azaspiro[3.5]nonane-7-carboxylate]	1 to 10 nM	10 to 100 nM	–	< 100 nM	–	–
CCc1c(F)ccc2cc(O)cc(-c3ncc4c(N5CCC[C@@](C)(O)C5)nc(OC[C@@]56CCCN5[C@H](COC(=O)N5CCC(F)(CN7CCC(c8ccc9c(c8)n(C)c(=O)n9C8CCC(=O)NC8=O)CC7)CC5)CC6)nc4c3F)c12 (stereo partly drawn) [Compound 156, ((3S,7AS)-7a-(((7-(8-ethyl-7-fluoro-3-hydroxynaphthalen-1-yl)-8-fluoro-4-((R)-3-hydroxy-3-methylpiperidin-1-yl)pyrido[4,3-d]pyrimidin-2-yl)oxy)methyl)hexahydro-1H-pyrrolizin-3-yl)methyl 4-((4-(1-(2,6-dioxopiperidin-3-yl)-3-methyl-2-oxo-2,3-dihydro-1H-benzo[d]imidazol-5-yl)piperidin-1-yl)methyl)-4-fluoropiperidine-1-carboxylate]	< 1 nM	< 10 nM	–	< 100 nM	–	–
C#Cc1c(F)ccc2cc(O)cc(-c3ncc4c(N5CCC[C@@](C)(O)C5)nc(OC[C@@]56CCCN5[C@H](COC(=O)N5CCC7(CC5)CC(N5CCC(c8cccc9c8n(C)c(=O)n9C8CCC(=O)NC8=O)CC5)C7)CC6)nc4c3F)c12 (stereo partly drawn) [Compound 387, ((3S,7aS)-7a-(((7-(8-ethynyl-7-fluoro-3-hydroxynaphthalen-1-yl)-8-fluoro-4-((R)-3-hydroxy-3-methylpiperidin-1-yl)pyrido[4,3-d]pyrimidin-2-yl)oxy)methyl)hexahydro-1H-pyrrolizin-3-yl)methyl 2-(4-(1-(2,6-dioxopiperidin-3-yl)-3-methyl-2-oxo-2,3-dihydro-1H-benzo[d]imidazol-4-yl)piperidin-1-yl)-7-azaspiro[3.5]nonane-7-carboxylate]	≥ 10 nM	< 10 nM	–	< 100 nM	–	–
C#Cc1c(F)ccc2cccc(-c3ncc4c(N5CCC[C@@](C)(O)C5)nc(OCC5(CN6CCN(CC7CCN(c8ccc9c(c8)C(=O)N(C8CCC(=O)NC8=O)C9=O)CC7)CC6)CC5)nc4c3F)c12 (stereo partly shown) [Compound 55]	≥ 10 nM	> 100 nM	–	< 100 nM	–	–
